The record followed here is US9556190B2, “Piperidinyloxy lactone orexin receptor antagonists” (MERCK SHARP & DOHME CORP., priority 2013, dated 2017).

Structures are written as SMILES.

One test deals with human orexin-2 receptor (Homo sapiens (Human), UniProt O43614). The test can be described thus: FLIPR Ca2+ Flux Assay, CHO cells expressing orexin-2 receptor. The format is cell-based. Conditions: 70 pM Ala-6,12 orexin-A agonist, read-out: hOX2R FLIPR IC50. Here is the method:
The utility of the compounds in accordance with the present invention as orexin receptor OX1R and/or OX2R antagonists may be readily determined without undue experimentation by methodology well known in the art, including the “FLIPR Ca^2+ Flux Assay” (Okumura et al., Biochem. Biophys. Res. Comm. 280:976-981, 2001). In a typical experiment the OX1 and OX2 receptor antagonistic activity of the compounds of the present invention was determined in accordance with the following experimental method. For intracellular calcium measurements, Chinese hamster ovary (CHO) cells expressing the rat orexin-1 receptor or the human orexin-2 receptor, are grown in Iscove's modified DMEM containing 2 mM L-glutamine, […], 1% hypoxanthine-thymidine supplement, 100 U/ml penicillin, 100 μg/ml streptomycin and 10% heat-inactivated fetal calf serum (FCS). The cells are seeded at 20,000 cells/well into Becton-Dickinson black 384-well clear bottom sterile plates coated with poly-D-lysine. All reagents were from GIBCO-Invitrogen Corp. The seeded plates are incubated overnight at 37° C. and 5% CO2. Ala-6,12 human orexin-A as the agonist is prepared as a 1 mM stock solution in 1% bovine serum albumin (BSA) and diluted in assay buffer (HBSS containing 20 mM HEPES, 0.1% BSA and 2.5 mM probenecid, pH7.4) for use in the assay at a final concentration of 70 pM. Test compounds are prepared as 10 mM stock solution in DMSO, then diluted in 384-well plates, first in DMSO, then assay buffer. On the day of the assay, cells are washed 3 times with 100 μl assay buffer and then incubated for 60 min (37° C., 5% CO2) in 60 μl assay buffer containing 1 μM Fluo-4AM ester, 0.02% pluronic acid, and 1% BSA. The dye loading solution is then aspirated and cells are washed 3 times with 100 μl assay buffer. 30 μl of that same buffer is left in each well. Within the Fluorescent Imaging Plate Reader (FLIPR, Molecular Devices), test compounds are added to the plate in a volume of 25 μl, incubated for 5 min and finally 25 μl of agonist is added. Fluorescence is measured for each well at 1 second intervals for 5 minutes and the height of each fluorescence peak is compared to the height of the fluorescence peak induced by 70 pM Ala-6,12 orexin-A with buffer in place of antagonist. For each antagonist, IC50 value (the concentration of compound needed to inhibit 50% of the agonist response) is determined. Alternatively, compound potency can be assessed by a radioligand binding assay (described in Bergman et. al. Bioorg. Med. Chem. Lett. 2008, 18, 1425-1430) in which the inhibition constant (Ki) is determined in membranes prepared from CHO cells expressing either the OX1 or OX2 receptor. The intrinsic orexin receptor antagonist activity of a compound which may be used in the present invention may be determined by these assays.
(In general: Calcium flux is commonly read through the fluorescence of an indicator in the cells.)

A further test has as its target hOX1R (Homo sapiens, UniProt O43613). The test can be described thus: FLIPR Ca2+ Flux Assay, CHO cells expressing orexin-1 receptor. The format is cell-based. Conditions: 70 pM Ala-6,12 orexin-A agonist.

Sequence of human orexin-2 receptor (O43614 whole entry): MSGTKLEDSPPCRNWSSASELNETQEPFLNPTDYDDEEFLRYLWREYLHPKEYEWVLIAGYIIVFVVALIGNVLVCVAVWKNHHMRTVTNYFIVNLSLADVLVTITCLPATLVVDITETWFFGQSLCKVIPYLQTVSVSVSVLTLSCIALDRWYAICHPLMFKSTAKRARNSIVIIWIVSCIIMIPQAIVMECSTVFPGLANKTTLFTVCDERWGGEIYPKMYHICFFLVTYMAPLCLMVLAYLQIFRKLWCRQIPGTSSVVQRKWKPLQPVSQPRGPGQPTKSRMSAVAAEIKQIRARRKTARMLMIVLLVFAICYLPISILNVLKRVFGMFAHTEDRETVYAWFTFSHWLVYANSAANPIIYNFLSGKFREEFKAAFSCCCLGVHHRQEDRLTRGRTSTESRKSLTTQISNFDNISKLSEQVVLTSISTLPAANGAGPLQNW

Consider `C[C@@H]1CC[C@@H](Oc2nccc3c2C(=O)OC3(C)C)CN1C(=O)c1ccc(F)cc1-n1nccn1` [Example 10, 4-{[(3R,6R)-1-{[4-fluoro-2-(2H-1,2,3-triazol-2-yl)phenyl]carbonyl}-6-methylpiperidin-3-yl]oxy}-1,1-dimethylfuro[3,4-c]pyridin-3(1H)-one], for which the half-inhibitory concentration (IC50) (commonly the concentration that inhibits the measured activity by half) on human orexin-2 receptor was found to be 0.059 µM; at hOX1R, 10 µM.
The like results for `C[C@@H]1CC[C@@H](Nc2nccc3c2C(=O)O[C@@H]3C)CN1C(=O)c1ccccc1-n1nccn1` [Example 47, (1R)-1-methyl-4-{[(3R,6R)-6-methyl-1-{[2-(2H-1,2,3-triazol-2-yl)phenyl]carbonyl}piperidin-3-yl]amino}furo[3,4-c]pyridin-3(1H)-one] were, in that order, 0.035 µM and 7.26 µM.
Regarding `C[C@@H]1CC[C@@H](Nc2nccc3c2C(=O)OC3)CN1C(=O)c1ccccc1-n1nccn1` [Example 40, 4-{[(3R,6R)-6-Methyl-1-{[2-(2H-1,2,3-triazol-2-yl)phenyl]carbonyl}piperidin-3-yl]amino}furo[3,4-c]pyridin-3(1H)-one], the 50% inhibitory concentration (IC50) came out at 0.136 µM at human orexin-2 receptor and 10 µM on hOX1R.
As for `C[C@@H]1CC[C@@H](Oc2nccc3c2COC3=O)CN1C(=O)c1cscc1-n1nccn1` [Example 30, 4-{[(3R,6R)-6-methyl-1-{[4-(2H-1,2,3-triazol-2-yl)-thiophen-3-yl]car-bonyl}piperidin-3-yl]oxy}furo[3,4-c]pyridin-1(3H)-one], the concentration for half-maximal inhibition (IC50) on human orexin-2 receptor came out at 0.026 µM; at hOX1R, 10 µM.
In the case of `C[C@@H]1CC[C@@H](N(C)c2nccc3c2C(=O)OC3(C)C)CN1C(=O)c1ccccc1-n1ncnn1` [Example 45, 1,1-Dimethyl-4-{methyl[(3R,6R)-6-methyl-1-{[2-(2H-tetrazol-2-yl)phenyl]carbonyl}piperidin-3-yl]amino}furo[3,4-c]pyridin-3(1H)-one], the IC50 at human orexin-2 receptor is 0.127 µM; at hOX1R, 9.33 µM.
Taken in the same sequence, the figures for `C[C@@H]1CC[C@@H](Oc2nccc3c2C(=O)OC3(C)C)CN1C(=O)c1cc(F)ccc1-n1nccn1` [Example 4, 4-{[(3R,6R)-1-{[5-fluoro-2-(2H-1,2,3-triazol-2-yl)phenyl]carbonyl}-6-methylpiperidin-3-yl]oxy}-1,1-dimethylfuro[3,4-c]pyridin-3(1H)-one] were 0.023 µM and 10 µM.
